Where no end group is shown, it is not given here.
Columns and labels:
[1] = system: Huh-7.5 cells harboring SGR-JFH-1 Feo; assay: MTT cytotoxicity in hepatocytes; type: cell-based, human; conditions: for CC50 (50% cytotoxic concentration): 48 h incubation, SGR-Feo-JFH-1 Huh-7.5 cells, triplicate in three independent assays; for maximum non-toxic (safe) concentration in hepatocytes: arbitrary threshold of 80% cell viability, 48 h
From the text: (§1) Figure 2 Hecate and its derivative-peptide effects on subgenomic HCV genotype 2a replication and hepatotoxicity. (A) Hecate. (B) Lys- Hecate. (C) GA-Hecate. (D) GA2-Hecate. (E) Acetyl-Hecate. (F) Glu-Hecate. Luciferase assays report HCV replication and MTT assays report the viability of Huh-7.5 cells harboring SGR-JFH-1 Feo under peptide treatment. Water was used as a negative control of virus replication inhibition and cell death (Control (−)), and Cyclosporine A was used as a positive control for virus replication inhibition (Control (+)). Red dotted lines represent the arbitrary threshold of 80% cell viability, and blue dotted lines represent the maximum inhibition presented by Hecate at the maximum safe concentration. Bars represent triplicates of the three independent assays. ***P < 0.01 vs control (−).
Peptide cytotoxicity profiles were measured by the MTT [3-(4,5-dimethylthiazol- 2-yl)-2,5-diphenyl tetrazolium bromide] (Sigma–Aldrich) method. Twenty-four hours before treatment, 5 × 10^3 SGR-harboring cell lines (SGR-Feo-JFH-1 or S52/SG-neo) were cultured with supplemented DMEM in a 96-multi-well plate and incubated at 37 °C in a humidified 5% CO2 incubator. On the subsequent day, peptide-containing medium was added at the following final concentrations: 2.5, 5, 10 and 20 μM. The tested peptides were Hecate and its derivatives, which included the following: lysine addition (Lysine-Hecate/Lys-Hecate); one or two molecules of Gallic Acid (GA-Hecate and GA2-Hecate); one acetyl radical (Acetyl-Hecate) or Glutamic acid (Glu-Hecate). After 48 h of incubation, peptide-media was removed, and MTT at a final concentration of 1 mg/mL was added to the wells, incubated for 30 minutes and subsequently replaced by 100 μL of DMSO. Absorbance was measured at 562 nm, using a plate spectrophotometer (FLUOstar Omega/BMG LABTECH, Offenburg, BW, DE). Cell viability was calculated considering water-treated cells (peptides diluent) as a negative control. All experiments were performed in triplicate and in three independent replicates. Further assays were performed considering at least 80% viability of the treated cells.
(§2) GA-Hecate toxicity and viral inhibition profile in 24, 48 and 72h post-treatment in […]
(§3) GA-Hecate toxicity and viral inhibition capacity were evaluated at 24, 48 and 72h post-treatment. Tested concentrations were 1.25; 2.5; 5; 10; 20; and 40 µM. At the end of every incubation, cells were stained using MTT as previously described. Similarly, at every time point, treated cells were lysed using PLB and summited to Luminescence analysis as previously described. […]

[2] = system: HCV subgenomic replicon SGR-Feo-JFH-1 (genotype 2a); assay: HCV subgenomic replicon replication, luciferase assay (genotype 2a); type: cell-based, hepatitis C virus; conditions: for SI (selectivity index), ratio CC50/EC50 / inhibition of HCV replication at the maximum safe concentration: 48 h, genotype 2a replicon; for EC50: Huh-7.5 harbouring SGR-Feo-JFH-1 genotype 2a, 48 h treatment, 2.5-20 μM, luciferase, triplicate in three independent assays, read-out: EC50 (50% effective concentration for HCV); for inhibition of HCV replication at the maximum safe concentration: at each peptide's maximum safe concentration (Hecate 10 μM; Lys-, Glu-, Acetyl-Hecate 5 μM)
From the text: as §1
Cell lines harboring subgenomic or genomic replicons were seeded at 5 × 10^3 cells /well on 96-well plates and the compounds were added 24 h post-seeding, in a concentration range between 2.5–20 μM. After 48 h of treatment, the cells were disrupted with 30 μL of passive lysis buffer (Promega, Madison, WI, USA), and luciferase substrate (Promega, Madison, WI, USA) was automatically added to each sample. Luciferase activity was measured using a luminometer (FLUOstar Omega/BMG LABTECH, Offenburg, BW, DE). The same assays were performed in Huh-7.5 cell lines harboring SGR-JFH1 Feo, S52/SG-neo or FL-J6/JFH-50C19Rluc2AUbi. Cyclosporine A (Sigma-Aldrich) at 1 μM was used as positive control of viral replication inhibition and dH2O as negative control.
as §2, §3

Compound | CC50 (50% cytotoxic concentration) [1] | maximum non-toxic (safe) concentration in hepatocytes [1] | SI (selectivity index), ratio CC50/EC50 [2] | EC50 [2] | inhibition of HCV replication at the maximum safe concentration [2]
CC(C)C[C@H](NC(=O)[C@H](C)NC(=O)[C@H](CCCCN)NC(=O)[C@H](CCCCN)NC(=O)[C@H](CC(C)C)NC(=O)[C@H](C)NC(=O)[C@H](CCCCN)NC(=O)[C@H](CCCCN)NC(=O)[C@H](CC(C)C)NC(=O)[C@H](CCCCN)NC(=O)[C@H](CCCCN)NC(=O)[C@H](CC(C)C)NC(=O)[C@H](C)NC(=O)[C@H](CCCCN)NC(=O)[C@H](CCCCN)NC(=O)[C@H](CC(C)C)NC(=O)[C@H](C)NC(=O)[C@H](CCCCN)NC(=O)[C@H](CC(C)C)NC(=O)[C@H](C)NC(=O)[C@H](CC(C)C)NC(=O)[C@H](C)NC(=O)[C@H](Cc1ccccc1)NC(=O)[C@@H](N)CCCCN)C(N)=O [Lys-Hecate] | 7.97 µM | 5 µM | 3.06 | 2.6 µM | –
Ac-FALALKALKKALKKLKKALKKAL-NH2 [Acetyl-Hecate] | 9.43 µM | 5 µM | – | 3.79 µM | approximately 65%
H-EFALALKALKKALKKLKKALKKAL-NH2 [Glu-Hecate] | 9.12 µM | 5 µM | 2.76 | 3.3 µM | approximately 65%
FALALKALKKALKKLKKALKKAL-NH2 [Hecate] | 12.17 µM | 10 µM | 1.42 | 8.57 µM | –
